According to PMC3395220 (Journal of Medicinal Chemistry, 2012):
Like-named read-outs stand apart in the source and are kept apart here.

Experiments:
[1] = tested on: U251; conditions: read-out: Average GI50; U251, CNS; ref historical data at the NCI; cited from earlier work
[2] = tested on: MDA-MB-231/ATCC; conditions: read-out: Average GI50; MDA-MB-231, breast; ref historical data at the NCI; cited from earlier work
[3] = tested on: OVCAR-8; conditions: read-out: Average GI50; OVCAR-8, ovarian; ref historical data at the NCI; cited from earlier work
[4] = tested on: SF-295; conditions: read-out: Average GI50; SF-295, CNS; ref historical data at the NCI; cited from earlier work
[5] = tested on: IGROV1; conditions: read-out: Average GI50; IGROV 1, ovarian; ref historical data at the NCI; cited from earlier work
[6] = tested on: panel of 12 tumor cell lines implanted in mice; assay: NCI hollow fiber assay; type: in vivo; conditions: for hollow fiber assay total score: 12 tumor cell lines, daily ip for four days
[7] = tested on: SK-MEL-5; conditions: read-out: Average GI50; SK-MEL-5, melanoma; ref historical data at the NCI; cited from earlier work
[8] = tested on: COLO 205; conditions: read-out: Average GI50; COLO205, colon; ref historical data at the NCI; cited from earlier work
[9] = tested on: A549/ATCCC; conditions: read-out: Average GI50; A549, NSCL; ref historical data at the NCI; cited from earlier work
[10] = tested on: 60 cancer cell lines; assay: cells; type: cell-based, human; conditions: Homo sapiens
[11] = tested on: SK-MEL-2 melanoma cells; assay: Subcutaneous SK-MEL-2 melanoma xenograft; type: in vivo, athymic nu/nu mice; conditions: ip 8 mg/kg q4dx3, positive control
[12] = tested on: T-47D; type: cell-based, human; conditions: 10^Δ2-x, relative to compound 2
[13] = tested on: BT-549; type: cell-based, human; conditions: 10^Δ2-x, relative to compound 2
[14] = tested on: SF-295; type: cell-based, human; conditions: 10^Δ2-x, relative to compound 2
[15] = tested on: UACC-62; type: cell-based, human; conditions: 10^Δ2-x, relative to compound 2
[16] = tested on: TK-10; type: cell-based, human; conditions: 10^Δ2-x, relative to compound 2
[17] = tested on: HS578T; type: cell-based, human; conditions: 10^Δ2-x, relative to compound 2
[18] = tested on: NCI/ADR-RES; assay: cells; type: cell-based, human; conditions: 10^Δ2-x, relative to compound 2
[19] = tested on: OVCAR-5; type: cell-based, human; conditions: 10^Δ2-x, relative to compound 2
[20] = tested on: HL-60(TB); type: cell-based, human; conditions: 10^Δ2-x, relative to compound 2
[21] = tested on: PC-3; type: cell-based, human; conditions: 10^Δ2-x, relative to compound 2
[22] = tested on: DU-145; type: cell-based, human; conditions: 10^Δ2-x, relative to compound 2
[23] = tested on: SNB-19; type: cell-based, human; conditions: 10^Δ2-x, relative to compound 2
[24] = tested on: A549/ATCCC; type: cell-based, human; conditions: 10^Δ2-x, relative to compound 2
[25] = tested on: SW-620; type: cell-based, human; conditions: 10^Δ2-x, relative to compound 2
[26] = tested on: OVCAR-3; type: cell-based, human; conditions: 10^Δ2-x, relative to compound 2
[27] = tested on: NCI-H23; type: cell-based, human; conditions: 10^Δ2-x, relative to compound 2
[28] = tested on: NCI-H460; type: cell-based, human; conditions: 10^Δ2-x, relative to compound 2
[29] = tested on: UO-31; type: cell-based, human; conditions: 10^Δ2-x, relative to compound 2
[30] = tested on: HCT-15; type: cell-based, human; conditions: 10^Δ2-x, relative to compound 2
[31] = tested on: HT29; type: cell-based, human; conditions: 10^Δ2-x, relative to compound 2
[32] = tested on: M14; type: cell-based, human; conditions: 10^Δ2-x, relative to compound 2
[33] = tested on: MDA-MB-468; type: cell-based, human; conditions: 10^Δ2-x, relative to compound 2
[34] = tested on: A498; type: cell-based, human; conditions: 10^Δ2-x, relative to compound 2
[35] = tested on: SNB-75; type: cell-based, human; conditions: 10^Δ2-x, relative to compound 2
[36] = tested on: OVCAR-8; type: cell-based, human; conditions: 10^Δ2-x, relative to compound 2
[37] = tested on: COLO-205 (colon), A549 (non-small cell lung) and BXCP3 (pancreas); assay: cells; type: cell-based; conditions: 72 h, read-out: average GI50 (50% of growth inhibition)
[38] = tested on: U251; type: cell-based, human; conditions: 10^Δ2-x, relative to compound 2
[39] = tested on: COLO 205; type: cell-based, human; conditions: 10^Δ2-x, relative to compound 2
[40] = tested on: RPMI-8226; type: cell-based, human; conditions: 10^Δ2-x, relative to compound 2
[41] = tested on: 786-0; type: cell-based, human; conditions: 10^Δ2-x, relative to compound 2
[42] = tested on: HOP-92; type: cell-based, human; conditions: 10^Δ2-x, relative to compound 2
[43] = tested on: UACC-257; type: cell-based, human; conditions: 10^Δ2-x, relative to compound 2
[44] = tested on: KM12; type: cell-based, human; conditions: 10^Δ2-x, relative to compound 2
[45] = tested on: SK-MEL28; type: cell-based, human; conditions: 10^Δ2-x, relative to compound 2
[46] = tested on: LOX IMVI; type: cell-based, human; conditions: 10^Δ2-x, relative to compound 2
[47] = tested on: SF-539; type: cell-based, human; conditions: 10^Δ2-x, relative to compound 2
[48] = tested on: MCF7; type: cell-based, human; conditions: 10^Δ2-x, relative to compound 2
[49] = tested on: EKVX; type: cell-based, human; conditions: 10^Δ2-x, relative to compound 2
[50] = tested on: ACHN; type: cell-based, human; conditions: 10^Δ2-x, relative to compound 2
[51] = tested on: SR; type: cell-based, human; conditions: 10^Δ2-x, relative to compound 2
[52] = tested on: K-562; type: cell-based, human; conditions: 10^Δ2-x, relative to compound 2
[53] = tested on: MDA-MB-231/ATCC; type: cell-based, human; conditions: 10^Δ2-x, relative to compound 2
[54] = tested on: IGROV1; type: cell-based, human; conditions: 10^Δ2-x, relative to compound 2
[55] = tested on: HCT-116; type: cell-based, human; conditions: 10^Δ2-x, relative to compound 2
[56] = tested on: NCI-H226; type: cell-based, human; conditions: 10^Δ2-x, relative to compound 2
[57] = tested on: RXF 393; type: cell-based, human; conditions: 10^Δ2-x, relative to compound 2
[58] = tested on: HOP-62; type: cell-based, human; conditions: 10^Δ2-x, relative to compound 2
[59] = tested on: SK-MEL2; type: cell-based, human; conditions: 10^Δ2-x, relative to compound 2
[60] = tested on: CCRF-CEM; type: cell-based, human; conditions: 10^Δ2-x, relative to compound 2
[61] = tested on: MDA-MB-435; type: cell-based, human; conditions: 10^Δ2-x, relative to compound 2
[62] = tested on: MOLT-4; type: cell-based, human; conditions: 10^Δ2-x, relative to compound 2
[63] = tested on: HCC-2998; type: cell-based, human; conditions: 10^Δ2-x, relative to compound 2
[64] = tested on: SF-268; type: cell-based, human; conditions: 10^Δ2-x, relative to compound 2
[65] = tested on: SN12C; type: cell-based, human; conditions: 10^Δ2-x, relative to compound 2
[66] = tested on: OVCAR-4; type: cell-based, human; conditions: 10^Δ2-x, relative to compound 2
[67] = tested on: NCI-H522; type: cell-based, human; conditions: 10^Δ2-x, relative to compound 2
[68] = tested on: CAKI-1; type: cell-based, human; conditions: 10^Δ2-x, relative to compound 2
[69] = tested on: SK-MEL-5; type: cell-based, human; conditions: 10^Δ2-x, relative to compound 2

mithramycin [Compound 1]
GI50 [1]: 63 nM
GI50 [2]: 166 nM
GI50 [3]: 79 nM
GI50 [4]: 79 nM
GI50 [5]: 158 nM
hollow fiber assay total score [6]: 58/96
hollow fiber assay intraperitoneal score ([6]; intraperitoneal implants): 34/48
hollow fiber assay subcutaneous score ([6]; subcutaneous implants): 24/48
GI50 [7]: 63 nM
GI50 [8]: 63 nM
GI50 [9]: 79 nM

CO[C@H](C(=O)[C@@H](O)[C@@H](C)O)[C@@H]1Cc2cc3cc(O[C@H]4C[C@@H](O[C@H]5C[C@@H](O)[C@H](O)[C@@H](C)O5)[C@H](O)[C@@H](C)O4)c(C)c(O)c3c(O)c2C(=O)[C@H]1O[C@H]1C[C@@H](O[C@H]2C[C@@H](O[C@H]3C[C@H](O)[C@H](O)[C@@H](C)O3)[C@H](O)[C@@H](C)O2)[C@H](O)[C@@H](C)O1 [Compound 2, demycarosyl-3D-β-D-digitoxosyl-mithramycin, reference compound]
GI50 ([10]; read-out: Mean GI50): 51 nM

COc1cccc2c1C(=O)c1c(O)c3c(c(O)c1C2=O)C[C@@](O)(C(=O)CO)C[C@@H]3O[C@H]1C[C@H](N)[C@H](O)[C@H](C)O1 [doxorubicin, reference compound]
growth of SK-MEL-2 human melanoma xenografts [11]: markedly delayed

CO[C@H](C(=O)C(C)=O)[C@@H]1Cc2cc3cc(O[C@H]4C[C@@H](O[C@H]5C[C@@H](O)[C@H](O)[C@@H](C)O5)[C@H](O)[C@@H](C)O4)c(C)c(O)c3c(O)c2C(=O)[C@H]1O[C@H]1C[C@@H](O[C@H]2C[C@@H](O[C@H]3C[C@H](O)[C@H](O)[C@@H](C)O3)[C@H](O)[C@@H](C)O2)[C@H](O)[C@@H](C)O1 [Compound 11, demycarosyl-3D-β-D-digitoxosyl-mithramycin SDK]
activity improvement factor [12]: 1.32
activity improvement factor [13]: 1.26
activity improvement factor [14]: 2.32
activity improvement factor [15]: 0.91
activity improvement factor [16]: 1.50
activity improvement factor [17]: 1.76
activity improvement factor [18]: 4.68
activity improvement factor [19]: 2.57
activity improvement factor [20]: 3.09
activity improvement factor [21]: 4.37
activity improvement factor [22]: 3.63
activity improvement factor [23]: 2.57
activity improvement factor [24]: 1.68
activity improvement factor [25]: 1.22
activity improvement factor [26]: 3.43
activity improvement factor [27]: 2.79
activity improvement factor [28]: 1.19
activity improvement factor [29]: 1.30
activity improvement factor [30]: 5.82
activity improvement factor [31]: 3.13
activity improvement factor [32]: 2.75
activity improvement factor [33]: 2.14
activity improvement factor [34]: 0.68
activity improvement factor [35]: 2.75
activity improvement factor [36]: 2.11
GI50 [37]: 300 to 1300 nM
activity improvement factor [38]: 1.35
activity improvement factor [39]: 1.60
GI50 ([10]; read-out: Mean GI50): 28 nM
GI50 ([10]; read-out: Mean log(GI50) (converted)): 28.2 nM
activity improvement factor [40]: 0.75
activity improvement factor [41]: 2.43
activity improvement factor [42]: 1.50
activity improvement factor [43]: 1.17
activity improvement factor [44]: 2.32
activity improvement factor [45]: 1.30
hollow fiber assay total score [6]: 48/96
activity improvement factor [46]: 1.51
activity improvement factor [47]: 1.58
activity improvement factor [48]: 0.65
activity improvement factor [49]: 1.48
activity improvement factor [50]: 2.09
activity improvement factor [51]: 1.22
activity improvement factor [52]: 1.26
activity improvement factor [53]: 2.00
activity improvement factor [54]: 3.24
activity improvement factor [55]: 1.30
activity improvement factor [56]: 1.32
activity improvement factor [57]: 1.91
activity improvement factor [58]: 3.39
activity improvement factor [59]: 2.24
activity improvement factor [60]: 1.16
activity improvement factor [61]: 1.70
activity improvement factor [62]: 1.76
activity improvement factor [63]: 4.79
activity improvement factor [64]: 1.66
activity improvement factor [65]: 1.45
activity improvement factor [66]: 2.88
activity improvement factor [67]: 0.70
activity improvement factor [68]: 1.82
activity improvement factor [69]: 1.24
